Source: patent US20170051149A1, “AZOARYLS AS REVERSIBLY MODULATABLE TUBULIN INHIBITORS” (ECOLE NORMALE SUPERIEURE DE LYON, priority 2014, published 2017)
Like-named read-outs stand apart in the source and are kept apart here.

Key:
HepG2 cells = assay: nuclear fragmentation (subG1, Nicoletti), induction of apoptosis; type: cell-based; settings: 48 h
Experimental: (§1) Different cell types, including MDA-MB-231, Jurkat, HeLa and HepG2 cells, were treated with indicated concentrations of compound I.1 and exposed to a 390 nm toxic regime, a rescue regime with both 390 nm and 515 nm light, or kept in the dark. Following the treatment, cells were stained with PI and the percentage of cells containing a hypodiploid amount of DNA (subG1 phase of cell cycle), was determined. Briefly, prior to analysis, cells were harvested on ice and incubated in a hypotonic buffer [0.1% sodium citrate, 0.1% Triton X-100 and 50 μg/mL propidium iodide (PI)] for 30 min at 4° C. Following the PI staining cells were analysed by flow cytometry using FACSCalibur flow cytometer (Becton Dickinson, Heidelberg, Germany) and Cell Quest Pro Software (Becton Dickinson).

MDA-MB-231 cells = assay: as above; type: cell-based; settings: for EC50: Homo sapiens, MDA-MB-231, 48 h, read-out: EC50, 50% increase of the subG1 population percentage
Experimental: as §1

HeLa cells = assay: as above; type: cell-based; settings: 30 h
Experimental: as §1

[1] = UV-Vis absorption spectra of trans and cis isomers (λstrong, εE, λiso); type: physicochemical
Experimental: A(λmeas, λirrad) is used to indicate the measured UV-Vis absorption spectrum in the range 340 nm<λmeas<650 nm, as a function of the irradiating wavelength λirrad once PSS(λirrad) has been established. UV-Vis measurement of A(λmeas, λirrad) was performed. It was considered that the PSS had been established when the absorbance profile ceased to alter under continued irradiation. An isosbestic point (wavelength λiso) was found for each compound by examining where the absorption A(λmeas) was invariant with respect to changing λirrad. A(λmeas, dark) was also acquired with samples that had been kept in the dark for at least several hours, and it was assumed that no significant spectral contribution from the cis isomer was present in these spectra. […]
HPLC (high-performance liquid chromatography) was then used as described in Part A to measure ε*E(λ) and ε*Z(λ) (the separated absorption profiles of trans and cis isomers respectively, in arbitrary units which are not intercomparable in an absolute sense). It was approximated that these spectra would be identical in shape if measured under the UV-Vis conditions, so once ε*E(λ) and ε*Z(λ) were scaled appropriately relative to each other, these scaled spectra could be used to deconvolute A(λmeas, λirrad). This approximation was considered useful especially in the regions of greatest spectral interest, ie. regions of relatively strong absorption (since only rather well-absorbed wavelengths will allow significant photoisomerisation under finite photon flux). To place the arbitrary-unit absorption spectra on an absolute scale, the maximal absorption wavelength λstrong of the trans-isomer was first selected by examining A(λmeas, dark): typically, λstrong≈380 nm. with Expressing A(λstrong, dark) in units M^−1cm^−1, ε*E(λstrong) was then scaled so that εE(λstrong)=A(λstrong, dark), giving:
εE(λ)=ε*E(λ)×[A(λstrong,dark)/ε*E(λstrong)]
and the isosbestic point was used to scale the cis-isomer spectrum as per:
εZ(λ)=ε*Z(λ)×[εE(λiso)/ε*Z(λiso)]
However, using A(λstrong, dark) was preferred, since A(λiso) was typically so much smaller that the standard deviation in the scaled absorptivities which it generated was far greater.
Absorption spectra in cuvette (“UV-Vis”) were acquired on a Varian CaryScan 50 (1 cm, 100 μL or 1 mL volume) with Peltier cell temperature control unit maintained at 37° C., in PBS at pH˜7.4 containing a low percentage of cosolvent if needed (typically 2% MeCN or 5% DMSO). A ThorLabs Polychrome V monochromator with a fibre optic cable output directed into the cuvette was used to perform photoisomerisation studies by UV-Vis spectrophotometry although single LEDs of approximately 10-20 mW output, 15-20° cone angle, and 10-15 nm bandwidth FWHM, obtained commercially from Roithner Lasertechnik GmbH, were equally successful in providing repeatable monochromatic photoisomerisation. Separated spectra of trans and […] forms were acquired from the inline Diode Array Detector on the AGILENT 1260 SL coupled LC-MS system after HPLC separation. Fluorescence spectrophotometry (excitation and emission spectra) were acquired on a Varian CaryEclipse fluorescence spectrophotometer.
By the above procedure, the trans- and cis-isomers of each species were separated by HPLC as described in Part A, and ε*E(λ) and ε*Z(λ) were measured on the inline ultraviolet/visible Diode Array Detector; these were then scaled as outlined above. The parameters λstrong, εE(λstrong) and λiso are tabulated for selected compounds below (Table 1).

[2] = fluorophore moiety range above 510 nm, PBS pH = 7.4, 20% MeCN

Which results are given for COc1ccc(N=Nc2cc(OC)c(OC)c(OC)c2)cc1O [I.1, 2-methoxy-5-((3,4,5-trimethoxyphenyl)diazenyl)phenol]?
mean % subG1 phase (HepG2 cells; 100 nM, HepG2, 390 nm light (250 ms pulses every 15 s)): 5.4%; mean % subG1 phase (HepG2 cells; 100 nM, HepG2, dark): 2.5%; mean % subG1 phase (HepG2 cells; 600 nM, HepG2, 390 nm light (250 ms pulses every 15 s)): 5.2%; mean % subG1 phase (HepG2 cells; 600 nM, HepG2, dark): 3.1%; mean % subG1 phase (HepG2 cells; 1 μM, HepG2, 390 nm light (250 ms pulses every 15 s)): 4.6%; mean % subG1 phase (HepG2 cells; 1 μM, HepG2, dark): 2.3%; mean % subG1 phase (HepG2 cells; 3 μM, HepG2, 390 nm light (250 ms pulses every 15 s)): 6.5%; mean % subG1 phase (HepG2 cells; 3 μM, HepG2, dark): 1.9%; mean % subG1 phase (HepG2 cells; 10 μM, HepG2, 390 nm light (250 ms pulses every 15 s)): 14%; mean % subG1 phase (HepG2 cells; 10 μM, HepG2, dark): 2.8%; mean % subG1 phase (MDA-MB-231 cells; 10 nM, 390 nm (350 ms every 5 min), 48 h): 3.6%; mean % subG1 phase (MDA-MB-231 cells; 10 nM, Dark, 48 h): 6.7%; mean % subG1 phase (MDA-MB-231 cells; 10 nM, MDA-MB-231, 390 nm only (150 ms pulse every 30 s), 48 h): 0.3%; mean % subG1 phase (MDA-MB-231 cells; 10 nM, MDA-MB-231, rescue protocol 390 nm + 515 nm (500 ms), 48 h): 0.3%; mean % subG1 phase (MDA-MB-231 cells; 100 nM, 390 nm (350 ms every 5 min), 48 h): 3.9%; mean % subG1 phase (MDA-MB-231 cells; 100 nM, MDA-MB-231, 390 nm only (150 ms pulse every 30 s), 48 h): 0.3%; mean % subG1 phase (MDA-MB-231 cells; 100 nM, MDA-MB-231, dark, 48 hours): 2.1%; mean % subG1 phase (MDA-MB-231 cells; 100 nM, MDA-MB-231, rescue protocol 390 nm + 515 nm (500 ms), 48 h): 0.4%; mean % subG1 phase (MDA-MB-231 cells; 100 nM, dark, 48 h): 6.0%; mean % subG1 phase (MDA-MB-231 cells; 400 nM, 390 nm (350 ms every 5 min), 48 h): 4.2%; mean % subG1 phase (MDA-MB-231 cells; 400 nM, MDA-MB-231, 390 nm only (150 ms pulse every 30 s), 48 h): 14.0%; mean % subG1 phase (MDA-MB-231 cells; 400 nM, MDA-MB-231, rescue protocol 390 nm + 515 nm (500 ms), 48 h): 1.7%; mean % subG1 phase (MDA-MB-231 cells; 400 nM, dark, 48 h): 3.3%; mean % subG1 phase (MDA-MB-231 cells; 600 nM, 390 nm (350 ms every 5 min), 48 h): 16.8%; mean % subG1 phase (MDA-MB-231 cells; 600 nM, MDA-MB-231, 390 nm only (150 ms pulse every 30 s), 48 h): 22.9%; mean % subG1 phase (MDA-MB-231 cells; 600 nM, MDA-MB-231, rescue protocol 390 nm + 515 nm (500 ms), 48 h): 5.4%; mean % subG1 phase (MDA-MB-231 cells; 600 nM, dark, 48 h): 3.9%; mean % subG1 phase (MDA-MB-231 cells; 800 nM, 390 nm (350 ms every 5 min), 48 h): 32.1%; mean % subG1 phase (MDA-MB-231 cells; 800 nM, Dark, 48 h): 3.0%; mean % subG1 phase (MDA-MB-231 cells; 800 nM, MDA-MB-231, 390 nm only (150 ms pulse every 30 s), 48 h): 19.4%; mean % subG1 phase (MDA-MB-231 cells; 800 nM, MDA-MB-231, rescue protocol 390 nm + 515 nm (500 ms), 48 h): 11.7%; mean % subG1 phase (MDA-MB-231 cells; 1 μM, 390 nm (350 ms every 5 min), 48 h): 55.7%; mean % subG1 phase (MDA-MB-231 cells; 1 μM, MDA-MB-231, 390 nm only (150 ms pulse every 30 s), 48 h): 22.5%; mean % subG1 phase (MDA-MB-231 cells; 1 μM, MDA-MB-231, dark, 48 hours): 2.0%; mean % subG1 phase (MDA-MB-231 cells; 1 μM, MDA-MB-231, rescue protocol 390 nm + 515 nm (500 ms), 48 h): 15.3%; mean % subG1 phase (MDA-MB-231 cells; 1 μM, dark, 48 h): 3.1%; mean % subG1 phase (MDA-MB-231 cells; 1.2 μM, 390 nm (350 ms every 5 min), 48 h): 56.6%; mean % subG1 phase (MDA-MB-231 cells; 1.2 μM, DARK, 48 h): 3.6%; mean % subG1 phase (MDA-MB-231 cells; 1.5 μM, 390 nm (350 ms every 5 min), 48 h): 76.1%; mean % subG1 phase (MDA-MB-231 cells; 1.5 μM, DARK, 48 h): 3.3%; mean % subG1 phase (MDA-MB-231 cells; 2 μM, MDA-MB-231, 390 nm only (150 ms pulse every 30 s), 48 h): 35.4%; mean % subG1 phase (MDA-MB-231 cells; 2 μM, MDA-MB-231, rescue protocol 390 nm + 515 nm (500 ms), 48 h): 25.0%; mean % subG1 phase (MDA-MB-231 cells; 3 μM, 390 nm (350 ms every 5 min), 48 h): 79.0%; mean % subG1 phase (MDA-MB-231 cells; 3 μM, dark, 48 h): 6.0%; mean % subG1 phase (MDA-MB-231 cells; 6 μM, 390 nm (350 ms every 5 min), 48 h): 83.5%; mean % subG1 phase (MDA-MB-231 cells; 6 μM, DARK, 48 h): 3.9%; mean % subG1 phase (MDA-MB-231 cells; 10 μM, MDA-MB-231, dark, 48 hours): 2.0%; mean % subG1 phase (MDA-MB-231 cells; 15 μM, 390 nm (350 ms every 5 min), 48 h): 83.7%; mean % subG1 phase (MDA-MB-231 cells; 15 μM, DARK, 48 h): 5.4%; mean % subG1 phase (MDA-MB-231 cells; 50 μM, MDA-MB-231, dark, 48 hours): 4.5%; mean % subG1 phase (MDA-MB-231 cells; 75 μM, MDA-MB-231, dark, 48 hours): 7.9%; mean % subG1 phase (MDA-MB-231 cells; 85 μM, MDA-MB-231, dark, 48 hours): 12.7%; mean % subG1 phase (MDA-MB-231 cells; 100 μM, MDA-MB-231, dark, 48 hours): 26.8%; mean % subG1 phase (MDA-MB-231 cells; 125 μM, MDA-MB-231, dark, 48 hours): 51.1%; mean % subG1 phase (MDA-MB-231 cells; 150 μM, MDA-MB-231, dark, 48 hours): 92.2%; mean % subG1 phase (MDA-MB-231 cells; 175 μM, MDA-MB-231, dark, 48 hours): 95.7%; mean % subG1 phase (MDA-MB-231 cells; 200 μM, MDA-MB-231, dark, 48 hours): 95.5%; EC50 (MDA-MB-231 cells; 390 nm regimen, 48 h): ~1 µM; EC50 (MDA-MB-231 cells; in the dark, 48 h): ~120 µM; mean % subG1 phase (HeLa cells; 200 nM, 390 nm light (1 s pulses every 15 min)): 2.4%; mean % subG1 phase (HeLa cells; 200 nM, dark): 1.8%; mean % subG1 phase (HeLa cells; 600 nM, 390 nm light (1 s pulses every 15 min)): 6.2%; mean % subG1 phase (HeLa cells; 600 nM, dark): 2.3%; mean % subG1 phase (HeLa cells; 1.5 μM, 390 nm light (1 s pulses every 15 min)): 16.1%; mean % subG1 phase (HeLa cells; 1.5 μM, dark): 2.9%; mean % subG1 phase (HeLa cells; 5 μM, 390 nm light (1 s pulses every 15 min)): 12.8%; mean % subG1 phase (HeLa cells; 5 μM, dark): 3.2%; εE(λstrong) ([1]; PBS pH = 6, 20% MeCN): 17100 M⁻¹ cm⁻¹; λiso ([1]; PBS pH = 6, 20% MeCN): 465 nm; λstrong ([1]; PBS pH = 6, 20% MeCN): 380 nm; εE(λstrong) ([1]; PBS pH = 7.4, 20% MeCN): 17700 M⁻¹ cm⁻¹; λiso ([1]; PBS pH = 7.4, 20% MeCN): 470 nm; λstrong ([1]; PBS pH = 7.4, 20% MeCN): 375 nm

With CCN(CC)c1ccc2c(-c3ccccc3C(=O)N3CCN(CCCOc4c(N=Nc5cc(OC)c(OC)c(OC)c5)ccc(OC)c4C)CC3)c3ccc(=[N+](CC)CC)cc-3oc2c1.CCN(CC)c1ccc2c(-c3ccccc3C(=O)N3CCN(CCCOc4c(N=Nc5cc(OC)c(OC)c(OC)c5)ccc(OC)c4C)CC3)c3ccc(=[N+](CC)CC)cc-3oc2c1.O=C[O-].O=C[O-] [I.25, N-(6-(diethylamino)-9-(2-(4-(3-(3-methoxy-2-methyl-6-((3,4,5-trimethoxyphenyl)diazenyl)phenoxy)propyl)piperazine-1-carbonyl)phenyl)-3H-xanthen-3-ylidene)-N-ethylethanaminium bis(formate) salt] as the compound, how does the “εE(λstrong)” value ([1]; PBS pH = 7.4, 20% MeCN) read?
The value was 15300 M⁻¹ cm⁻¹.

What about the λiso ([1]; PBS pH = 7.4, 20% MeCN) of the same compound?
The λiso was 460 nm.

What about the λstrong ([1]; PBS pH = 7.4, 20% MeCN) of the same compound?
The λstrong was 375 nm.

And the “εE(λstrong)” value [1, 2]?
Its value is “(66600) M^−1cm^−1”.

And the λstrong [1, 2]?
The λstrong was “(565) nm”.

What about the λiso ([1]; fluorophore moiety range, A(λ > 510) invariant upon photoswitching) of the same compound?
The λiso was “(510 ff) nm”.
